Assay results taken from patent US8846696B2, “Purine derivatives” (Cyclacel Limited, priority 2002, dated 2014).
Like-named read-outs stand apart in the source and are kept apart here.

Key:
[1] = Comparative in vitro metabolism assay (microsomal incubation)
Description: (§3) Calibration curves were prepared at 0, 1, and 10 μM in microsomes pre-incubated for 30 min and these were also treated with methanol containing olomoucine. All samples were then centrifuged and the supernatants analysed by liquid chromatography-mass spectrometry.
(§4) The chromatography column was a Supelco LC-ABZ, 50×4.6 mm, 5 μm zwitterionic column (Supelco Inc., Supelco Park, Bellefonte, Pa., USA). Gradient eluants consisted of methanol (A) and 0.1% formic acid in water (B). […] The flow rate was 1 mL/min throughout. […] Eluant from the detector passed, without splitting, into a Thernoquest LCQ ion trap mass spectrometer fitted with an electrospray source operated in positive mode. Mass spectrometer conditions were sheath gas 80, auxiliary gas 20 (both arbitrary units), capillary voltage 4 to 4.5 kV and heated capillary temperature 250 to 280° C. The mass range was 50-750. Scan time was controlled by the ion trap which was set to a maximum ion injection time of 200 ms or the time required to inject 2×10^8 ions; for each scan the system automatically used whichever time was reached first.
(§5) The peak area ration (test compound/internal standard) of the test incubation was then compared with the peak area ratios obtained fro the calibration curve of the test compound. From these values the concentration of test compound remaining after 30 min microsomal protein incubation was determined.

CDK1/cyclin B = CDK1/cyclin B (Homo sapiens (Human), UniProt P06493); assay: Kinase assay CDK1/cyclin B; type: biochemical; conditions: read-out: Kinase inhibition CDK1/cyclin B IC50
Description: (§6) Recombinant cyclin D1 was expressed in E. coli. […] Reactions were stopped on ice, followed by filtration through p81 filterplates or GF/C filterplates (for CDK4) (Whatman Polyfiltronics, Kent, UK), except for CDK7 where, after stopping reaction on ice, 10 μL of 10 mg/mL avidin was added to each well and further incubated for 10 min followed by filtration as per CDK2 assay. After washing 3 times with 75 mM aq orthophosphoric acid, plates were dried, scintillant added and incorporated radioactivity measured in a scintillation counter (TopCount, Packard Instruments, Pangbourne, Berks, UK). Compounds for kinase assay were made up as 10 mM stocks in DMSO and diluted into 10% DMSO in assay buffer.

ERK-2 = ERK-2 (Homo sapiens (Human), UniProt P28482); assay: Kinase assay ERK-2; conditions: read-out: Kinase inhibition ERK2 IC50
Description: as §6

CDK2/cyclin E = CDK2/cyclin E (Homo sapiens (Human), UniProt P24941); assay: Kinase assay CDK2/cyclin E; type: biochemical; conditions: for IC50: read-out: Kinase inhibition CDK2/cyclin E IC50; for A × B: comparative in vitro efficacy; for B: IC50 CDK2 roscovitine/IC50 CDK2 compound: ratio to roscovitine
Description: as §6

CDK4/cyclin D1 = CDK4/cyclin D1 (Homo sapiens (Human), UniProt P11802); conditions: read-out: Kinase inhibition CDK4/cyclin D1 IC50
Description: as §6

CDK7/cyclin H = CDK7/cyclin H (Homo sapiens (Human), UniProt P50613); assay: Kinase assay CDK7/cyclin H; type: biochemical; conditions: read-out: Kinase inhibition CDK7/cyclin H IC50
Description: Reactions were stopped on ice, followed by filtration through p81 filterplates or GF/C filterplates (for CDK4) (Whatman Polyfiltronics, Kent, UK), except for CDK7 where, after stopping reaction on ice, 10 μL of 10 mg/mL avidin was added to each well and further incubated for 10 min followed by filtration as per CDK2 assay. After washing 3 times with 75 mM aq orthophosphoric acid, plates were dried, scintillant added and incorporated radioactivity measured in a scintillation counter (TopCount, Packard Instruments, Pangbourne, Berks, UK). Compounds for kinase assay were made up as 10 mM stocks in DMSO and diluted into 10% DMSO in assay buffer.

[2] = test system: Human tumour cell lines: A549, HT29, Saos-2; assay: 72-h MTT cytotoxicity assay, tumour cell lines A549, HT29, Saos-2; type: cell-based; conditions: for IC50: 72 h, read-out: In vitro anti-proliferative activity (72-h MTT IC50), Human tumour cell lines: A549, HT29, Saos-2; for C: IC50 cytotox. roscovitine/IC50 cytotox. compound: ratio to roscovitine
Description: (§1) In short: cells were seeded into 96-well plates according to doubling time and incubated overnight at 37° C. Test compounds were made up in DMSO and a ⅓ dilution series prepared in 100 μL cell media, added to cells (in triplicates) and incubated for 72 ho at 37° C. MTT was made up as a stock of 5 mg/mL in cell media and filter-sterilised. Media was removed from cells followed by a wash with 200 μL PBS. MTT solution was then added at 20 μL per well and incubated in the dark at 37° C. for 4 h. MTT solution was removed and cells again washed with 200 μL PBS. MTT dye was solubilised with 200 μL per well of DMSO with agitation.

[3] = molecular target: cyclic AMP-dependent kinase (PKA) catalytic subunit (Homo sapiens (Human), UniProt P17612); assay: Kinase assay PKA; conditions: read-out: Kinase inhibition PKA IC50
Description: as §6

[4] = 10 μM
Description: as §3, §4, §5

HeLa = assay: 72-h MTT assay HeLa; type: cell-based; conditions: Homo sapiens, read-out: 72-h MTT IC50, cervical adenocarcinoma
Description: as §1
(§2) Representative compounds of this invention were examined for their anti-proliferative effect against human tumour cell lines and immortalized non-transformed human cell lines (“normal” cell lines).

normal cell lines = assay: 72-h MTT assay, mean of normal cell lines; type: cell-based; conditions: Homo sapiens, read-out: 72-h MTT IC50
Description: as §1, §2

cancer cell lines = assay: 72-h MTT assay, mean of cancer cell lines; type: cell-based; conditions: Homo sapiens, read-out: 72-h MTT IC50
Description: as §1, §2

MCF7 = assay: 72-h MTT assay MCF7; type: cell-based; conditions: Homo sapiens, read-out: 72-h MTT IC50, MCF7, mammary adenocarcinoma
Description: as §1, §2

IMR90 = assay: 72-h MTT assay IMR90; type: cell-based; conditions: Homo sapiens, IMR-90, 72 h, read-out: 72-h MTT IC50; IMR90, normal embryo lung fibroblast
Description: as §1, §2

Saos-2 = assay: 72-h MTT assay Saos-2; type: cell-based; conditions: Homo sapiens, read-out: 72-h MTT IC50, Saos-2, osteosarcoma
Description: as §1, §2

WI38 = assay: 72-h MTT assay WI38; type: cell-based; conditions: Homo sapiens, WI-38, 72 h, read-out: 72-h MTT IC50; WI38, normal foetal lung fibroblast
Description: as §1, §2

Hs27 = assay: 72-h MTT assay Hs27; type: cell-based; conditions: Homo sapiens, read-out: 72-h MTT IC50, Hs27, normal foreskin fibroblast
Description: as §1, §2

HT-29 = assay: 72-h MTT assay HT-29; type: cell-based; conditions: Homo sapiens, read-out: 72-h MTT IC50, HT-29, colorectal adenocarcinoma
Description: as §1, §2

A549 = assay: 72-h MTT assay A549; type: cell-based; conditions: Homo sapiens, read-out: 72-h MTT IC50, A549, lung carcinoma
Description: as §1, §2

HL-60 = assay: 72-h MTT assay HL-60; type: cell-based; conditions: Homo sapiens, read-out: 72-h MTT IC50, HL-60, acute promyelocytic leukaemia
Description: as §1, §2

K-562 = assay: 72-h MTT assay K-562; type: cell-based; conditions: Homo sapiens, K562, 72 h, read-out: 72-h MTT IC50
Description: as §1, §2

CCRF-CEM = assay: 72-h MTT assay CCRF-CEM; type: cell-based; conditions: Homo sapiens, read-out: 72-h MTT IC50, acute lymphoblastic leukaemia
Description: as §1, §2

Sequence of CDK7/cyclin H (P50613 whole entry): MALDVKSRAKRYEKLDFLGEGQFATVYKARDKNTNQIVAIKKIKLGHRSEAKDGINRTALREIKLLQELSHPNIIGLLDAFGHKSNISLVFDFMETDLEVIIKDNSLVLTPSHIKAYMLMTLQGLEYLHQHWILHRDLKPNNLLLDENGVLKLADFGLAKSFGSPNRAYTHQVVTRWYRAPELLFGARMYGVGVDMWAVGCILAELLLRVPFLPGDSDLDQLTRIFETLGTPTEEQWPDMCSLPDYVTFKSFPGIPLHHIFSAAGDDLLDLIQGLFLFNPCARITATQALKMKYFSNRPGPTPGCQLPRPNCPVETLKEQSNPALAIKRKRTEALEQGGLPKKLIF
Sequence of CDK7/cyclin H (P51946 whole entry partner): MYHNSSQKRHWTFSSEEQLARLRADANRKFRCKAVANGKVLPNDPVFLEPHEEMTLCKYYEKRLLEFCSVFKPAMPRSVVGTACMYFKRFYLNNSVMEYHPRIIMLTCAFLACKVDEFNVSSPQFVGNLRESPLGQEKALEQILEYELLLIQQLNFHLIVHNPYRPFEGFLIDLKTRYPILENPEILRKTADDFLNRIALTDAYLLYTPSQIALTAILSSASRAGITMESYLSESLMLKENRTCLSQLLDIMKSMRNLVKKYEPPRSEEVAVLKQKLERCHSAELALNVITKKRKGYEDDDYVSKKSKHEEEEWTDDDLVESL
Sequence of ERK-2 (P28482 whole entry, species assumed): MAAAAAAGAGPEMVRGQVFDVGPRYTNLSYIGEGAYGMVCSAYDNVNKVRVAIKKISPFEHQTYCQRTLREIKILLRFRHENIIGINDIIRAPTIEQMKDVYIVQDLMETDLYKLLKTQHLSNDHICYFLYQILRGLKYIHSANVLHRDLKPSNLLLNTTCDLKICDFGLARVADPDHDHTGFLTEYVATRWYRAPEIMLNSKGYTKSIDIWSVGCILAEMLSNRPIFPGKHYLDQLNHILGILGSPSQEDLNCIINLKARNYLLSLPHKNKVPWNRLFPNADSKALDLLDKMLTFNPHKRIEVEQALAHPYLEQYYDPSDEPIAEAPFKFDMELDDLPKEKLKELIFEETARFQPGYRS
Sequence of CDK1/cyclin B (P06493 whole entry): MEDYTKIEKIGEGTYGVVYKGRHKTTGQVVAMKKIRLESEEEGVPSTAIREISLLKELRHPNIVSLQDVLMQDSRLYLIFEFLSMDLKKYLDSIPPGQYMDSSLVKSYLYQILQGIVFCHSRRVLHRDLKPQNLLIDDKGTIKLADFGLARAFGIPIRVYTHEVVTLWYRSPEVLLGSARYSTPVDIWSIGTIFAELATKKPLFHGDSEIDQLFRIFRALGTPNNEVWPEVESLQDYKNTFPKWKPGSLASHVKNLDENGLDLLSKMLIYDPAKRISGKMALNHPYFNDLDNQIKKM
Sequence of CDK1/cyclin B (P14635 whole entry partner): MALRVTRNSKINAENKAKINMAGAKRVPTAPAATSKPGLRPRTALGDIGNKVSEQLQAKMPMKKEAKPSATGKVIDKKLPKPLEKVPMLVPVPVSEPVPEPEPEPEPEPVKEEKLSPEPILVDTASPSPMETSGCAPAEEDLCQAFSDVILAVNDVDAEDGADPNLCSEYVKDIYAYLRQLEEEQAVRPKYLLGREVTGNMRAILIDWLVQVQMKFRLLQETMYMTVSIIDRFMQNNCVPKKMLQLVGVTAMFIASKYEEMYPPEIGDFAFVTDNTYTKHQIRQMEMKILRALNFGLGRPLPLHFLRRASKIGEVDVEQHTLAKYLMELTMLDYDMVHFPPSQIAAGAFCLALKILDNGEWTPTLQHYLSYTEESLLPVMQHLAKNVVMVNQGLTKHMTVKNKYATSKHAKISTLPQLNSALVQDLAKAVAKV
Sequence of CDK4/cyclin D1 (P11802 whole entry): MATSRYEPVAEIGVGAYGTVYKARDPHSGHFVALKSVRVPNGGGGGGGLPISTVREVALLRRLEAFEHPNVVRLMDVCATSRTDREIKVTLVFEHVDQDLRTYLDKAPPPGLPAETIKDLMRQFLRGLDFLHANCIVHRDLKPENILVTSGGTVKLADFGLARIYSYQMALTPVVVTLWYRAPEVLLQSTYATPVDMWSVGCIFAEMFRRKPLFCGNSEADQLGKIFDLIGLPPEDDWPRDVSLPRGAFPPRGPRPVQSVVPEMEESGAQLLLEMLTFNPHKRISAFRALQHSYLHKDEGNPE
Sequence of CDK4/cyclin D1 (P24385 whole entry partner): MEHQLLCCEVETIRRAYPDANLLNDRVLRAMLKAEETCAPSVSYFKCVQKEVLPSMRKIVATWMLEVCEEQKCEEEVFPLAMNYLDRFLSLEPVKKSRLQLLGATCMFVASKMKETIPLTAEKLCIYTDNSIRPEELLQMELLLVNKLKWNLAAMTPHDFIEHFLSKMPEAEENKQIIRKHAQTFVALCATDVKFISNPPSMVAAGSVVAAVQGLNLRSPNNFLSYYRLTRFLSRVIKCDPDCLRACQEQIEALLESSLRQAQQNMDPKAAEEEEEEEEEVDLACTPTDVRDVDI

IC50 (CDK1/cyclin B) | IC50 (ERK-2) | IC50 (CDK2/cyclin E) | IC50 (CDK4/cyclin D1) | IC50 (CDK7/cyclin H) | IC50 [3] | % Drug after 30 min. microsomal incubation [4] | A × B (CDK2/cyclin E) | B: IC50 CDK2 roscovitine/IC50 CDK2 compound (CDK2/cyclin E) | Structure (SMILES) | IC50 [2] | C: IC50 cytotox. roscovitine/IC50 cytotox. compound [2] | further results
 |  |  |  |  |  |  |  |  | CC[C@H](CO)Nc1nc(NCc2ccccc2)c2ncn(C(C)C)c2n1 [Roscovitine, roscovitine] |  |  | % Drug after 30 min. microsomal incubation ([1]; 10 μM compound, 30 min, microsomal protein 0.2 mg, NADPH): 33%; A: % Compound remaining/% roscovitine remaining ([1]; ratio to roscovitine): 1.0
23 µM | 51 µM | 1000 nM | 24 µM | 1600 nM | > 200 µM |  |  |  | CC[C@@H](Nc1nc(NCc2cccnc2)c2ncn(C(C)C)c2n1)C(O)C(C)(C)C (mixture of isomers) [(3RS,4R)-4-{9-Isopropyl-6-[(pyridin-3-ylmethyl)-amino]-9H-purin-2-ylamino}-2,2-dimethyl-hexan-3-ol] | 19 µM |  | 
22 µM | 67 µM | 1100 nM | 31 µM | 3500 nM | > 200 µM |  |  |  | CC[C@H](Nc1nc(NCc2cccnc2)c2ncn(C(C)C)c2n1)C(O)C(C)C (mixture of isomers) [(3RS,4S)-4-{9-Isopropyl-6-[(pyridin-3-ylmethyl)-amino]-9H-purin-2-ylamino}-2-methyl-hexan-3-ol] | 19 µM |  | 
21 µM | 23 µM | 390 nM | 13 µM | 3500 nM | > 200 µM | 50% | 0.4 | 0.3 | CC[C@H](Nc1nc(NCc2cccnc2)c2ncn(C(C)C)c2n1)C(O)C(C)(C)C (mixture of isomers) [(3RS,4S)-4-{9-Isopropyl-6-[(pyridin-3-ylmethyl)-amino]-9H-purin-2-ylamino}-2,2-dimethyl-hexan-3-ol] | 15 µM | 0.8 | 
2.2 µM | 20 µM |  |  |  | > 200 µM | 67% | 7.5 |  | CC[C@H](Nc1nc(NCc2cccnc2)c2ncn(C(C)C)c2n1)[C@@H](C)O [(2R3S)-3-{9-Isopropyl-6-[(pyridin-3-ylmethyl)-amino]-9H-purin-2-ylamino}-pentan-2-ol] | 0.8 µM |  | IC50 (HeLa): 1400 ± 200 nM; IC50 (normal cell lines): > 10 µM; IC50 (cancer cell lines): 1100 ± 300 nM; IC50 (MCF7): 700 ± 100 nM; IC50 (IMR90): > 20 µM; IC50 (Saos-2): 1200 ± 200 nM; IC50 (WI38): 6.1 ± 0.3 µM; IC50 (Hs27): 5.9 ± 0.3 µM; IC50 (HT-29): 1100 ± 200 nM; IC50 (A549): 900 ± 100 nM
6.2 µM | 91 µM | 200 nM | 7.5 µM | 3100 nM | > 200 µM | 84% | 1.3 | 0.5 | CC[C@@H](Nc1nc(NCc2cccnc2)c2ncn(C(C)C)c2n1)C(C)(C)O [(3R)-3-{9-Isopropyl-6-[(pyridin-3-ylmethyl)-amino]-9H-purin-2-ylamino}-2-methyl-pentan-2-ol] | 5.6 µM | 2.1 | 
13 µM | 17 µM | 110 nM | 11 µM | 1500 nM | > 200 µM | 73% | 2.1 | 1.0 | CCC(O)[C@H](CC)Nc1nc(NCc2cccnc2)c2ncn(C(C)C)c2n1 (mixture of isomers) [(3RS,4S)-4-{9-Isopropyl-6-[(pyridin-3-ylmethyl)-amino]-9H-purin-2-ylamino}-hexan-3-ol] | 5.5 µM | 2.1 | 
12 µM | 37 µM | 220 nM | 25 µM | 1100 nM | > 200 µM | 70% | 1.0 | 0.5 | CCC(O)[C@@H](CC)Nc1nc(NCc2cccnc2)c2ncn(C(C)C)c2n1 (mixture of isomers) [(3RS,4R)-4-{9-Isopropyl-6-[(pyridin-3-ylmethyl)-amino]-9H-purin-2-ylamino}-hexan-3-ol] | 10 µM | 1.1 | 
20 µM | 111 µM | 690 nM | 21 µM | 2200 nM | 200 µM |  |  |  | CC[C@@H](Nc1nc(NCc2cccnc2)c2ncn(C(C)C)c2n1)C(O)C(C)C (mixture of isomers) [(3RS,4R)-4-{9-Isopropyl-6-[(pyridin-3-ylmethyl)-amino]-9H-purin-2-ylamino}-2-methyl-hexan-3-ol] | 28 µM |  | 
4.4 µM | 35 µM | 70 nM | 12 µM | 2500 nM | > 200 µM | 78% | 3.2 | 1.4 | CC[C@H](Nc1nc(NCc2cccnc2)c2ncn(C(C)C)c2n1)C(C)(C)O [(3S)-3-{9-Isopropyl-6-[(pyridin-3-ylmethyl)-amino]-9H-purin-2-ylamino}-2-methyl-pentan-2-ol] | 4 µM | 2.9 | IC50 (HeLa): 4700 ± 500 nM; IC50 (HL-60): 3000 ± 200 nM; IC50 (normal cell lines): > 10 µM; IC50 (cancer cell lines): 4000 ± 2000 nM; IC50 (MCF7): 2300 ± 300 nM; IC50 (IMR90): > 20 µM; IC50 (Saos-2): 3900 ± 800 nM; IC50 (WI38): > 20 µM; IC50 (Hs27): 11.3 ± 0.7 µM; IC50 (HT-29): 2300 ± 900 nM; IC50 (K-562): 8.4 ± 1.2 µM; IC50 (CCRF-CEM): 3.7 ± 0.3 µM; IC50 (A549): 3600 ± 200 nM
4.9 µM | 23 µM |  |  |  | > 200 µM | 90% | 3.1 |  | CC[C@@H](Nc1nc(NCc2cccnc2)c2ncn(C(C)C)c2n1)[C@H](C)O [(2S3R)-3-{9-Isopropyl-6-[(pyridin-3-ylmethyl)-amino]-9H-purin-2-ylamino}-pentan-2-ol] | 1.5 µM |  | IC50 (HeLa): 2900 ± 200 nM; IC50 (normal cell lines): > 10 µM; IC50 (cancer cell lines): 2300 ± 500 nM; IC50 (MCF7): 1600 ± 200 nM; IC50 (IMR90): > 20 µM; IC50 (Saos-2): 2800 ± 100 nM; IC50 (WI38): 11.2 ± 1.2 µM; IC50 (Hs27): 10.2 ± 0.6 µM; IC50 (HT-29): 2300 ± 600 nM; IC50 (A549): 2100 ± 400 nM
